Results on three molecules are retold here after patent publication US10188647B2, “Combination therapy using P53 activator and c-Met inhibitor” (Samsung Electronics Co., Ltd., priority 2013, dated 2019).

For assay [1], the system named is MKN45 stomach cancer cell line. Kind of assay: Western blot of p53 and p21 expression/accumulation, MKN45 cells. As to conditions: 24 hours. The assay is classed as cell-based. The protocol:
(§1) The activation of cell signal transduction system after the co-administration of L3-1Y antibody that is a c-Met antibody prepared in the above reference example and Nutlin-3a that is a p53 activator, was tested in MKN45 stomach cancer cell line and Caki-1 cell line.
(§2) Particularly, RPMI1640 (for MKN45 cells) containing 10% FBS, and DMEM (for Caki-1 cells) media (GIBCO) were added to a 96-well plate, to which MKN45 cell line (ATCC) and Caki-1 cell line (both of them were all obtained from ATCC) were each seeded in an amount of […], and then incubated overnight at 37° C. On the next day, the sole treatment of L3-1Y antibody at a concentration of 0.1 ug/ml (MKN45 cells) and 5 ug/ml (Caki-1 cells), […], and the combined treatment of L3-1Y antibody at 0.1 ug/ml (MKN45 cells) and 5 ug/ml ([…], respectively) were administered. After 24 hours post-administration, c-Met inhibition and p53 activation were analyzed by western blot.
On the technique in general: Immunoblotting shows a protein as a band on a membrane.

The test system of assay [2] is MKN45 stomach cancer cell line. In words: MKN45 cell proliferation after sole or combined treatment (CTG). Type of assay: cell-based. The settings on record: 72 hours. As for the experimental part:
The effects obtained by the co-administration of L3-1Y antibody that is a c-Met antibody prepared in the above reference example and Nutlin-3a that is a p53 activator, were tested in MKN45 stomach cancer cell line.
In particular, RPMI1640 media (GIBCO) containing 10% FBS were added to a 96-well plate, to which MKN45 stomach cancer cell line (ATCC) was seeded at 10,000 cells/well, and then incubated overnight at 37° C. On the next day, the sole treatment of 0.1 ug/ml of L3-1Y antibody, the sole treatment of 0.5 uM of Nutlin-3a (#N6287, sigma) which is a p53 activator, and the combined treatment of 0.1 ug/ml of L3-1Y antibody and 0.5 uM (micromole) of Nutlin-3a were administered to the incubated cells. After 72 hours post-administration, a CTG solution was added to the wells at 100 ul per well and after 30 min., and cell numbers were counted to measure a cell proliferation level.

Assay [3] concerns Caki-1 cell line. The arrangement: expression of p21: dose or concentration left out as unconfirmed. The settings on record: Caki-1 cells, 24 hours, western blot. The protocol:
as §1, §2

Assay [4] deals with Caki-1 cell line. Kind of assay: Caki-1 cell proliferation (BrdU assay), agonism of L3-1Y antibody. The assay is classed as cell-based. As to conditions: sole treatment 10 ug/ml L3-1Y, serum-free, 24 hours. As for the experimental part:
The effects obtained by the co-administration of L3-1Y antibody that is a c-Met antibody prepared in the above reference example and Nutlin-3a that is a p53 activator, were tested in Caki-1 cell line.
Particularly, DMEM media (GIBCO) containing 10% FBS were added to a 96-well plate, to which Caki-1 cell line (ATCC) was seeded at 5,000 cells/well, and then incubated overnight at 37° C. On the next day, the media was replaced by serum-free media, which were then incubated for 24 hours. The sole treatment of 10 ug/ml of L3-1Y antibody, and the combined treatment of 0.1 ug/ml of L3-1Y antibody and 5 uM of Nutlin-3a were administered to the incubated cells. After 24 hours post-administration, a BrdU assay was conducted to measure the cell proliferation level.
(In general: Incorporation of labelled thymidine or its analogues reports DNA synthesis.)

The target in the next assay is c-Met (Homo sapiens, UniProt P08581). In words: Specificity of expressed scFv to c-Met. The assay is classed as binding. As to conditions: expressed scFv product.
Setting [5] is: sole treatment 0.5 uM Nutlin-3a.
The mark [6] stands for this setting: sole treatment 0.5 mM Nutlin-3a.

Sequence of c-Met (P08581 25-1390): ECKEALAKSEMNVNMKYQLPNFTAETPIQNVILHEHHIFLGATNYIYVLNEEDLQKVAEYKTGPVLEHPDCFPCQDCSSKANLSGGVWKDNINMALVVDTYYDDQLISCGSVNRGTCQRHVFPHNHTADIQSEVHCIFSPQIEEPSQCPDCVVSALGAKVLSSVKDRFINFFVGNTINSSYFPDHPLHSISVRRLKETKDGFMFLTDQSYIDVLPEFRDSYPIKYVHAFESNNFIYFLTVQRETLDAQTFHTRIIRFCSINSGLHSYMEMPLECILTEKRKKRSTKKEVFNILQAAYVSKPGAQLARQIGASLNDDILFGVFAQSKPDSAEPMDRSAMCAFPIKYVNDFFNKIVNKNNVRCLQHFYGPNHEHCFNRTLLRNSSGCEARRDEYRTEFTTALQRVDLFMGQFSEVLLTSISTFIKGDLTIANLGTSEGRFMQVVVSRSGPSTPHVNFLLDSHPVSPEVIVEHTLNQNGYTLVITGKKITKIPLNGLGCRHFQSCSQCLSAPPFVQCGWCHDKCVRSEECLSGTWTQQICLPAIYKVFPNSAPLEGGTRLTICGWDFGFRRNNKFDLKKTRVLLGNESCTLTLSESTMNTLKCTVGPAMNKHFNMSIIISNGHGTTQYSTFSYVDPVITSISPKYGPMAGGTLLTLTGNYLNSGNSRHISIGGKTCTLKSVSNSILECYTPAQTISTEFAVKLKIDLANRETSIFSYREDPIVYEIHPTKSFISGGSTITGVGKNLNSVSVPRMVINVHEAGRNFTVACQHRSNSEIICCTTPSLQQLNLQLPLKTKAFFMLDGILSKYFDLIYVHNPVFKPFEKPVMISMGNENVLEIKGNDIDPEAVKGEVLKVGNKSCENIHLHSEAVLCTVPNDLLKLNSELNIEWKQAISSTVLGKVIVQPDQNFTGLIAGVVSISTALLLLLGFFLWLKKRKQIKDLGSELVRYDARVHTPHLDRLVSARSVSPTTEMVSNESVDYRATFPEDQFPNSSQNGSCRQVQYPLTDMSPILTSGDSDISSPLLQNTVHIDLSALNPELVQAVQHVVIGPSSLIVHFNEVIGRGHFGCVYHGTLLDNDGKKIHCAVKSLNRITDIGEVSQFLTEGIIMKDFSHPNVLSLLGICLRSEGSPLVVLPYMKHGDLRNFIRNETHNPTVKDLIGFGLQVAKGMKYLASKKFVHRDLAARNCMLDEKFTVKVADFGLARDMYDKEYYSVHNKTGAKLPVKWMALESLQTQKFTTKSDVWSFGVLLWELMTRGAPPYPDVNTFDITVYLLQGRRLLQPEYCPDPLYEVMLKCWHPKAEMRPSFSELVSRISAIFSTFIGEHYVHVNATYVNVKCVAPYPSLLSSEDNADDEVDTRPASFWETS

For `COc1ccc(C2=N[C@@H](c3ccc(Cl)cc3)[C@@H](c3ccc(Cl)cc3)N2C(=O)N2CCNC(=O)C2)c(OC(C)C)c1` [Nutlin-3a], the “expression of p21” value (in assay [1] (setting [5]); in the assay with Caki-1 cell line [3] (sole treatment)) was “accumulated” in each case. The p53 accumulation result (in assay [1] (setting [6]); with Caki-1 cell line [3] (setting [6])) was “accumulated” each time. Also, the “suppressive effects of cell proliferation” value in assay [2] (setting [5]) is listed as “did not show suppressive effects of cell proliferation”.

B1: L3-1Y: anti c-Met antibody: huAbF46-H4-A1 heavy chain variable region, human IgG2 hinge and constant region, kappa light chain (antibody)
heavy: EVQLVESGGGLVQPGGSLRLSCAASGFTFTDYYMSWVRQAPGKGLEWLGFIRNKANGYTTEYSASVKGRFTISRDNSKNTLYLQMNSLRAEDTAVYYCARDNWFAYWGQGTLVTVSSASTKGPSVFPLAPCSRSTSESTAALGCLVKDYFPEPVTVSWNSGALTSGVHTFPAVLQSSGLYSLSSVVTVPSSNFGTQTYTCNVDHKPSNTKVDKTVERKCCVECPPCPAPPVAGPSVFLFPPKPKDTLMISRTPEVTCVVVDVSHEDPEVQFNWYVDGVEVHNAKTKPREEQFNSTFRVVSVLTVVHQDWLNGKEYKCKVSNKGLPAPIEKTISKTKGQPREPQVYTLPPSREEMTKNQVSLTCLVKGFYPSDIAVEWESNGQPENNYKTTPPMLDSDGSFFLYSKLTVDKSRWQQGNVFSCSVMHEALHNHYTQKSLSLSPGK
light: DIQMTQSPSSLSASVGDRVTITCKSSQSLLASGNQNNYLAWYQQKPGKAPKMLIIWASTRVSGVPSRFSGSGSGTDFTLTISSLQPEDFATYYCQQSYSRPYTFGQGTKVEIKRTVAAPSVFIFPPSDEQLKSGTASVVCLLNNFYPREAKVQWKVDNALQSGNSQESVTEQDSKDSTYSLSSTLTLSKADYEKHKVYACEVTHQGLSSPVTKSFNRGEC
For the molecule B1, the “suppressive effects of cell proliferation” value in assay [2] (sole treatment 0.1 ug/ml L3-1Y) was “about 10%”. Also, the “promoted cell proliferation as compared to the media-only control” value in the assay with Caki-1 cell line [4] is no less than 20%.

B2: scFv of huAbF46: scFv with structure VH-linker-VL from heavy and light chain variable regions of huAbF46 antibody (protein)
scFv: EVQLVESGGGLVQPGGSLRLSCAASGFTFTDYYMSWVRQAPGKGLEWLGFIRNKANGYTTEYSASVKGRFTISRDNSKNTLYLQMNSLRAEDTAVYYCARDNWFAYWGQGTLVTVSSGLGGLGGGGSGGGGSGGSSGVGSDIQMTQSPSSLSASVGDRVTITCKSSQSLLASGNQNNYLAWHQQKPGKAPKMLIIWASTRVSGVPSRFSGSGSGTDFTLTISSLQPEDFATYYCQQSYSAPLTFGQGTKVEIKR
For B2, in the assay with c-Met, the “specificity to c-Met” value is on record as “exhibit specificity to c-Met”.
